# Measurements reported in PMC8274846, “Biogenic nanoporous silicon carrier improves the efficacy of buparvaquone against resistant visceral leishmaniasis” (PLoS Neglected Tropical Diseases, 2021).
# Tests used:
# [1] = test system: intracellular L.donovani amastigotes, wild-type AG83, in macrophages; assay: Antileishmanial activity against intracellular amastigotes, wild-type AG83; type: cell-based; conditions: for Selectivity index (SI), AG83: CC50/IC50, intracellular; for IC50: Leishmania donovani, Macrophage, mean ± σ, n = 4, read-out: Cellular IC50, Wild-type AG83
# Description: (§1) The intracellular antileishmanial activity was evaluated based on the reduction in the amastigote numbers in the infected macrophages after the treatment. The method was adapted from our previous work. Briefly, 4x10^6 amastigotes in 500 μL of RPMI-1640 suspension were added to each well containing macrophages with the macrophage: parasite ratio of 1:10. The plates were incubated for 4 h at 37°C in 5% CO2. After the parasite internalization period, cells were washed at least twice with fresh media to remove non-phagocytosed parasites. Then, the drug specimen suspended in 1 mL RPMI-1640 was added, and the samples were incubated for 72 h at 37°C in 5% CO2. The medium was aspirated, the coverslips were removed, and then fixed with methanol and air-dried. After staining with Giemsa, 100 cells on the glass discs were counted. Three independent experiments in quadruplicate for each concentration were performed.
# (§2) Microscopic examinations were performed in duplicates with various concentrations of pure drugs or buparvaquone-loaded nanoparticles and also for control wells. The amastigotes cells were counted for all cases using a hemocytometer. The mean of the control wells was considered as 100% survival. The counts in the treated wells at various concentrations were converted into percentages. Giemsa-stained slides of the macrophages infected with amastigotes were observed under a light microscope. Then the numbers of amastigotes and infected macrophages per 100 cells were counted for each slide. The percentage (%) of inhibition was calculated by using the equation %ofinhibition=C−T/C×100, (2) where C is the number of amastigotes/infected macrophages per 100 cells in the control well and T is the number of amastigotes/infected macrophages per 100 cells in the drug-treated well.
# (§3) Origin version 6.1 software was used to calculate IC50 and CC50 values by plotting a graph of the percentage of inhibition at various concentrations of all the observations.
# [2] = test system: intracellular L.donovani amastigotes, AG83-R, SSG, in macrophages; assay: microbe, parasite or virus in culture; type: cell-based; conditions: for Selectivity index (SI), AG83-R, SSG: CC50/IC50, intracellular; for IC50: Leishmania donovani, Macrophage, read-out: Cellular IC50, AG83-R, SSG
# Description: (§4) SSG and PMM resistant L. donovani amastigotes were generated by using the methods described previously. […] The cultures were stabilized for three subcultures. Then, the drug concentration was increased until the cell population decreased approximately to 20% for each batch. Finally, when 90% cell population of the initial count was reduced, the phenotype generated was plated on medium 199 agar plates containing the same drug concentration, and a single colony was picked for culture in medium 199 liquid media at the same drug concentration. The cultured promastigotes are converted into amastigotes as described above. Drug pressure was withdrawn, and stability was checked at one, two, and four months. SSG and PMM resistant phenotype clones were labeled as AG83-R,SSG and AG83-R, PMM, respectively.
# as §1, §2, §3
# [3] = test system: intracellular L.donovani amastigotes, AG83-R, PMM, in macrophages; assay: microbe, parasite or virus in culture; type: cell-based; conditions: for Selectivity index (SI), AG83-R, PMM: CC50/IC50, intracellular; for IC50: Leishmania donovani, Macrophage, read-out: Cellular IC50, AG83-R, PMM
# Description: as §4, §1, §2, §3
# [4] = test system: axenic L.donovani amastigotes, GE1 (isolated strain resistant to SSG); assay: Antileishmanial activity against axenic amastigotes, GE1; type: cell-based; conditions: for Resistance index (RI), GE1: IC50 against drug resistant strain / IC50 against wild-type strain (AG83), axenic; for IC50: Leishmania donovani
# Description: (§5) L. donovani AG83 (MHOM/IN/83/AG83) and GE1 (MHOM/IN/80/GE1F8R) promastigotes were routinely grown in medium 199 supplemented with 10% heat-inactivated fetal bovine serum, 2 mM L-glutamine, 20 mM HEPES, 100 U/mL penicillin, and 100 μg/mL streptomycin at 25°C. L. donovani amastigote forms were grown and maintained as described previously. Axenic amastigote forms were derived from promastigote forms by culturing them in MMA/20 (medium for axenic amastigote) at pH 5.5 [22]. Axenically grown amastigotes were maintained by sub-culture of 10^5 parasites/ml repeated every fifth day under experimental conditions of 37°C temperature and 5% CO2 environment.
# (§6) The antileishmanial activity of the drug specimens (BPQ+NP, BPQ, SSG, AmB, PMM, and MF) against the axenic amastigotes were evaluated based on the IC50 value, which is the concentration of the specimen required to kill 50% of the parasites. The parasites were first seeded into 96-well plates at a density of 1x10^5 amastigotes/well in 200 μL medium. Then, 10 μL of the drug candidates at various concentrations were added and the final volume was adjusted to […] medium. The number of amastigotes in the wells treated with each specimen were compared to those in the untreated control wells.
# as §2, §3
# [5] = test system: intracellular L.donovani amastigotes, GE1, in macrophages; assay: Antileishmanial activity against intracellular amastigotes, GE1; type: cell-based; conditions: for Selectivity index (SI), GE1: CC50/IC50, intracellular; for IC50: Leishmania donovani, Macrophage, mean ± σ, n = 4, read-out: Cellular IC50, GE1
# Description: as §1, §2, §3
# [6] = test system: axenic L.donovani amastigotes, wild-type AG83; assay: Antileishmanial activity against axenic amastigotes, wild-type AG83; type: cell-based; conditions: axenic amastigotes, mean ± σ, n = 4; for IC50: Leishmania donovani
# Description: as §5, §6, §2, §3
# [7] = test system: axenic L.donovani amastigotes, AG83-R, SSG (SSG resistant strain generated from AG83); assay: microbe, parasite or virus in culture; type: cell-based; conditions: for Resistance index (RI), AG83-R, SSG: IC50 against drug resistant strain / IC50 against wild-type strain (AG83), axenic; for IC50: Leishmania donovani, read-out: Axenic IC50, AG83-R, SSG
# Description: as §5, §4, §6, §2, §3
# [8] = test system: axenic L.donovani amastigotes, AG83-R, PMM (PMM resistant strain generated from AG83); assay: microbe, parasite or virus in culture; type: cell-based; conditions: for Resistance index (RI), AG83-R, PMM: IC50 against drug resistant strain / IC50 against wild-type strain (AG83), axenic; for IC50: Leishmania donovani, read-out: Axenic IC50, AG83-R, PMM
# Description: as §5, §4, §6, §2, §3
# [9] = Cytotoxicity studies (CC50) on peritoneal macrophages; type: cell-based, BALB/c mice; conditions: BALB/c, mouse, resident peritoneal macrophages, 48 h exposure, mean ± σ, n = 3
# Description: (§7) Resident peritoneal macrophages were isolated from BALB/c mice. For the isolation, 1.5 mL of sterile thioglycolate medium was injected into the peritoneal cavity to induce non-infectious inflammation. Animals were sacrificed after 5 days, and peritoneal exudates were harvested by intraperitoneal lavage. Cold RPMI (6 mL) was injected into the peritoneal cavity. After 10 min, the injected fluid was withdrawn by the same syringe. From each animal, approximately 3-4 mL of medium was recovered. After centrifugation at 200 g for 15 min, macrophages were collected. […] The cytotoxicity of the drug specimen was evaluated by the CC50 value, which is the concentration required to kill 50% of the host cell population. Macrophages were first isolated from peritoneal lavage as described above. The cells were seeded into 96-well plates at 1x10^6 cells/mL in 200 μL of RPMI-1640 supplemented with 10% FCS, 20 mM L-glutamine, 16 mM NaHCO3, penicillin (50 U/mL) and streptomycin (50 μg/ mL) at 37°C in 5% CO2 for 4 h for adherence. To remove the non-adherent cells, each plate was washed two times with phosphate buffer saline (pH 7.2). […] Microscopic examinations were performed in duplicates with various concentrations of pure drugs or buparvaquone-loaded nanoparticles and also for control wells. The amastigotes cells were counted for all cases using a hemocytometer. The mean of the control wells was considered as 100% survival. The counts in the treated wells at various concentrations were converted into percentages. Giemsa-stained slides of the macrophages infected with amastigotes were observed under a light microscope. Then the numbers of amastigotes and infected macrophages per 100 cells were counted for each slide. The percentage (%) of inhibition was calculated by using the equation %[…]×100, (2) where C is the number of amastigotes/infected macrophages per 100 cells in the control well and T is the number of amastigotes/infected macrophages per 100 cells in the drug-treated well.
# [10] = test system: wild-type AG83 promastigotes; assay: IC50 against wild-type AG83 promastigotes (used for generation of resistant strains); type: cell-based, L. donovani
# Description: as §4
# [11] = test system: resident peritoneal macrophages; assay: Cytotoxicity studies (CC50) on peritoneal macrophages; type: cell-based, BALB/c mice; conditions: 48 h exposure, values for SSG given in μg/ml
# Description: as §7
# L.donovani = test system: L.donovani; set-up: method as in PMID 25936561; conditions: L.donovani infection; cited from earlier work
# liver parasite burden = test system: liver parasite burden; set-up: method as in PMID 14695832, PMID 17715126; conditions: BALB/c mice; cited from earlier work
# [12] = intracellular amastigotes, 72 h
# [13] = axenic amastigotes, mean ± σ, n = 4
# [14] = intracellular amastigotes, 72 h, values for SSG given in μg/ml
# [15] = axenic amastigotes, values for SSG given in μg/ml, mean ± σ, n = 4
SMILES,"Selectivity index (SI), AG83 [1]","IC50 [1, 12] [nM]","Selectivity index (SI), AG83-R, SSG [2]",IC50 ([2]; 72 h) [nM],"Selectivity index (SI), AG83-R, PMM [3]",IC50 ([3]; 72 h) [nM],"Resistance index (RI), GE1 [4]","IC50 [4, 13] [nM]","Selectivity index (SI), GE1 [5]","IC50 [5, 12] [nM]",IC50 [6] [nM],"Resistance index (RI), AG83-R, SSG [7]",IC50 [7] [nM],"Resistance index (RI), AG83-R, PMM [8]",IC50 [8] [nM],CC50 at 48 h [9] [nM],further results
"C[C@@H]1[C@H](O)[C@@H](C)/C=C/C=C/C=C/C=C/C=C/C=C/C=C/[C@H](O[C@@H]2O[C@H](C)[C@@H](O)[C@H](N)[C@@H]2O)C[C@@H]2O[C@](O)(C[C@@H](O)C[C@@H](O)[C@H](O)CC[C@@H](O)C[C@@H](O)CC(=O)O[C@H]1C)C[C@H](O)[C@H]2C(=O)O [AmB, amphotericin B]",80 ± 10,200 ± 100,70 ± 10,200 ± 100,70 ± 10,300 ± 100,1.1 ± 0.2,300 ± 100,90 ± 10,200 ± 100,200 ± 100,1.1 ± 0.1,300 ± 100,1.2 ± 0.2,300 ± 100,15000 ± 2000,
"CCCCCCCCCCCCCCCCOP(=O)([O-])OCC[N+](C)(C)C [MF, miltefosine]",100 ± 10,400 ± 100,60 ± 5,700 ± 100,70 ± 10,,1.1 ± 0.3,500 ± 100,80 ± 10,500 ± 100,500 ± 100,1.3 ± 0.2,600 ± 100,1.1 ± 0.2,,36000 ± 4000,
"NC[C@@H]1O[C@H](O[C@H]2[C@@H](O)[C@H](O[C@@H]3[C@@H](O)[C@H](N)C[C@H](N)[C@H]3O[C@H]3O[C@H](CO)[C@@H](O)[C@H](O)[C@H]3N)O[C@@H]2CO)[C@H](N)[C@@H](O)[C@@H]1O [PMM, paromomycin]",30 ± 5,9000 ± 2000,2 ± 1,140000 ± 10000,2 ± 1,120000 ± 10000,2.1 ± 0.3,25000 ± 2000,13 ± 2,20000 ± 3000,12000 ± 1000,32 ± 3,384000 ± 23000,27 ± 2,327000 ± 12000,260000 ± 20000,"IC50 ([10]; Leishmania donovani, medium 199, read-out: IC50 against the parasite): 10000 nM"
"O.O.O.O.O.O.O.O.O.O=C([O-])[C@@H]1[O][Sb](=[O])([O][Sb]2(=[O])[O][C@H]([C@H](O)CO)[C@H](O)[C@H](C(=O)[O-])[O]2)[O][C@H]([C@H](O)CO)[C@@H]1O.[Na+].[Na+].[Na+] (stereo partly drawn) [SSG, sodium stibogluconate]",15 ± 4,,1 ± 1,,2 ± 1,,4 ± 1,,4 ± 2,,,38 ± 4,,32 ± 3,,,"Cellular IC50, Wild-type AG83 [1, 14]: 1.8 ± 0.2 µg/mL; Cellular IC50, AG83-R, SSG [2, 14]: 22 ± 2 µg/mL; Cellular IC50, AG83-R, PMM [3, 14]: 20 ± 2 µg/mL; Axenic IC50, GE1 [4, 15]: 14 ± 2 µg/mL; Cellular IC50, GE1 [5, 14]: 7.5 ± 0.3 µg/mL; Axenic IC50, Wild-type AG83 ([6]; values for SSG given in μg/ml): 3.5 ± 0.7 µg/mL; Axenic IC50, AG83-R, SSG [7, 15]: 133 ± 15 µg/mL; Axenic IC50, AG83-R, PMM [8, 15]: 113 ± 15 µg/mL; IC50 against the parasite ([10]; medium 199): 3.6 µg/mL; CC50 [11]: 27 ± 2 µg/mL"
C[C@@H]1CC[C@H]2[C@@H](C)C(=O)O[C@@H]3O[C@@]4(C)CC[C@@H]1[C@]32OO4 [artemisinin],,,,,,,,,,,,,,,,,Reduction of parasite burdens (liver and spleen) (L.donovani): ~ 50%
CC(C)(C)C1CCC(CC2=C(OP(=O)(O)O)C(=O)c3ccccc3C2=O)CC1 (stereo not drawn) [buparvaquone-3-phosphate],,,,,,,,,,,,,,,,,Reduction in the liver parasite burden (liver parasite burden): 34%
